Drawing on patent US10544130B2, “Metallo-beta-lactamase inhibitors” (priority 2015, dated 2020), this text covers Efflux ratio for 28 compounds.

This data set has as its system Pseudomonas aeruginosa PAO1 MB9798 (efflux+, IMP-1). The conditions noted are these: ratio MITC95 PA 9798/MITC95 PA 9799; imipenem at 2 μg/mL. The text has this:
The strain background was Pseudomonas aeruginosa PAO1.
The strain set was then used as a pair to determine the effect of metallo-β-lactamase inhibitors of Formula I on the MIC of imipenem and/or ceftazidime. A fixed concentration of antibiotic was included in standard microbroth MIC tests, usually at the CLSI (Clinical and Laboratory Standards Institute) breakpoint concentration. A fixed amount of a class A/C beta-lactamase inhibitor was also included to inhibit the resident Pseudomonas AmpC enzyme. A serial titration of the metallo-β-lactamase inhibitor was included and the concentration of metallo-β-lactamase inhibitor which restores susceptibility of the strain to the included antibiotic was recorded. That concentration of metallo-β-lactamase inhibitor was then compared between the two strains to determine the fold difference between the efflux + (MB9798) and efflux − (MB9799) strains. This was taken as an indication of the extent to which the MBLi is subject to efflux.
With `Nc1nc2c(-c3ccc(S(=O)(=O)N4CCC(N)CC4)c(S(N)(=O)=O)c3-c3nn[nH]n3)cccc2s1` [Example 148, 3-(2-aminobenzo[d]thiazol-4-yl)-6-((4-aminopiperidin-1-yl)sulfonyl)-2-(2H-tetrazol-5-yl)benzenesulfonamide], the Efflux ratio was determined as 2.00.

Turning to `Nc1ccc(-c2ccc(S(=O)(=O)NC[C@@H](N)CO)c(S(N)(=O)=O)c2-c2nn[nH]n2)cn1` [Example 365, (R)—N1-(2-amino-3-hydroxypropyl)-4-(6-aminopyridin-3-yl)-3-(2H-tetrazol-5-yl) benzene-1,2-disulfonamide], the Efflux ratio was found to be 2.00.

`C[C@H](CN)NS(=O)(=O)c1ccc(-c2cncc(N)c2)c(-c2nn[nH]n2)c1S(N)(=O)=O` [Example 221, (R)—N1-(1-aminopropan-2-yl)-4-(5-aminopyridin-3-yl)-3-(2H-tetrazol-5-yl)benzene-1,2-disulfonamide]: the Efflux ratio is 1.00.

`Nc1nc2c(-c3ccc(S(=O)(=O)NC4CN5CCC4CC5)c(S(N)(=O)=O)c3-c3nnn[nH]3)cccc2s1.O=C(O)C(F)(F)F` (stereo not shown) [Example 97, 3-(4-(2-aminobenzo[d]thiazol-4-yl)-2-sulfamoyl-3-(1H-tetrazol-5-yl)phenylsulfonamido) quinuclidin-1-ium 2,2,2-trifluoroacetate]: the Efflux ratio was determined as 1.00.

On to `NC[C@@H]1CCN(S(=O)(=O)c2ccc(-c3cccc4sc(N)nc34)c(-c3nnn[nH]3)c2S(N)(=O)=O)C1.O=C(O)C(F)(F)F` [Example 94, (S)-(1-((4-(2-aminobenzo[d]thiazol-4-yl)-2-sulfamoyl-3-(1H-tetrazol-5-yl)phenyl)sulfonyl)pyrrolidin-3-yl)methanaminium 2,2,2-trifluoroacetate], for which the Efflux ratio is listed as 1.00.

Regarding `NCCNS(=O)(=O)c1ccc(C2CCC[C@H](N)C2)c(-c2nn[nH]n2)c1S(N)(=O)=O` (stereo partly drawn) [Example 342, 4-((3S)-3-aminocyclohexyl)-N1-(2-aminoethyl)-3-(2H-tetrazol-5-yl)benzene-1,2-disulfonamide], the Efflux ratio is on record as 4.00.

With `CN1CC[C@H](CNS(=O)(=O)c2ccc(-c3cccc4sc(N)nc34)c(-c3nnn[nH]3)c2S(N)(=O)=O)C1` [Example 77, 4-(2-amino-1,3-benzothiazol-4-yl)-N1-{[(3S)-1-methylpyrrolidin-3-yl]methyl}-3-(1H-tetrazol-5-yl)benzene-1,2-disulfonamide], the Efflux ratio stood at 0.50.

With `CC1(NS(=O)(=O)c2ccc(-c3cccc4sc(N)nc34)c(-c3nnn[nH]3)c2S(N)(=O)=O)CCCNC1` (stereo not shown) [Example 57, 4-(2-amino-1,3-benzothiazol-4-yl)-N1-(3-methylpiperidin-3-yl)-3-(1H-tetrazol-5-yl)benzene-1,2-disulfonamide], the Efflux ratio was 1.00.

With `CN1CC2(CCN(S(=O)(=O)c3ccc(-c4cccc5sc(N)nc45)c(-c4nnn[nH]4)c3S(N)(=O)=O)C2)C1` [Example 38, 3-(2-amino-1,3-benzothiazol-4-yl)-6-[(2-methyl-2,6-diazaspiro[3.4]oct-6-yl)sulfonyl]-2-(1H-tetrazol-5-yl)benzenesulfonamide], the Efflux ratio amounted to 1.00.

For `Nc1nc2c(-c3ccc(S(=O)(=O)NC4CC5CNC4C5)c(S(N)(=O)=O)c3-c3nnn[nH]3)cccc2s1` (stereo not shown) [Example 88, 4-(2-aminobenzo[d]thiazol-4-yl)-N^1-(2-azabicyclo[2.2.1]heptan-6-yl)-3-(1H-tetrazol-5-yl)benzene-1,2-disulfonamide], the Efflux ratio stood at 0.50.

On to `C[C@@H](CN)NS(=O)(=O)c1ccc(-c2cccc3[nH]c(N)nc23)c(-c2nn[nH]n2)c1S(N)(=O)=O` [Example 186, 4-(2-amino-1H-benzo[d]imidazol-4-yl)-N^1—((S)-1-aminopropan-2-yl)-3-(2H-tetrazol-5-yl)benzene-1,2-disulfonamide], for which the Efflux ratio was 2.00.

As to `COc1ccnc(CNS(=O)(=O)c2ccc(-c3cccc4sc(N)nc34)c(-c3nnn[nH]3)c2S(N)(=O)=O)n1` [Example 34, 4-(2-amino-1,3-benzothiazol-4-yl)-N1-[(4-methoxypyrimidin-2-yl)methyl]-3-(1H-tetrazol-5-yl)benzene-1,2-disulfonamide], the Efflux ratio is on record as 4.00.

With `NCCNS(=O)(=O)c1ccc(-c2cccc3[nH]nnc23)c(-c2nn[nH]n2)c1S(N)(=O)=O` [Example 236, N^1-(2-aminoethyl)-4-(1H-benzo[d][1,2,3]triazol-4-yl)-3-(2H-tetrazol-5-yl)benzene-1,2-disulfonamide], the Efflux ratio was 1.00.

Consider `Nc1nc2c(-c3ccc(S(=O)(=O)NCC4(N)CCOCC4)c(S(N)(=O)=O)c3-c3nnn[nH]3)cccc2s1.O=CO` [Example 115, 4-((4-(2-aminobenzo[d]thiazol-4-yl)-2-sulfamoyl-3-(1H-tetrazol-5-yl)phenylsulfonamido)methyl)tetrahydro-2H-pyran-4-aminium formate], for which the Efflux ratio came to 1.00.

As for `Nc1nc2c(-c3ccc(S(=O)(=O)NC[C@H](N)CO)c(S(N)(=O)=O)c3-c3nn[nH]n3)cccc2[nH]1` [Example 191, 4-(2-amino-1H-benzo[d]imidazol-4-yl)-N^1—((S)-2-amino-3-hydroxypropyl)-3-(2H-tetrazol-5-yl)benzene-1,2-disulfonamide], the Efflux ratio was 1.00.

For `NS(=O)(=O)c1c(S(=O)(=O)N[C@@H]2CCNC2)ccc(-c2cccc3[nH]nnc23)c1-c1nn[nH]n1` [Example 235, (R)-4-(1H-benzo[d][1,2,3]triazol-4-yl)-N^1-(pyrrolidin-3-yl)-3-(2H-tetrazol-5-yl)benzene-1,2-disulfonamide], the Efflux ratio came to 0.50.

On to `NCCNS(=O)(=O)c1ccc(-c2cccc3sc(N)nc23)c(-c2nn[nH]n2)c1S(N)(=O)=O` [Example 145, 4-(2-aminobenzo[d]thiazol-4-yl)-N1-(2-aminoethyl)-3-(2H-tetrazol-5-yl)benzene-1,2-disulfonamide], for which the Efflux ratio stood at 0.50.

Regarding `NCCNS(=O)(=O)c1ccc(-c2ccc3ncn(CCN)c3c2)c(-c2nn[nH]n2)c1S(N)(=O)=O` [Example 348, N^1-(2-aminoethyl)-4-(1-(2-aminoethyl)-1H-benzo[d]imidazol-6-yl)-3-(2H-tetrazol-5-yl)benzene-1,2-disulfonamide], the Efflux ratio was found to be 4.00.

On to `Cn1c(N)nc2c(-c3ccc(S(=O)(=O)N[C@H]4CCNC4)c(S(N)(=O)=O)c3-c3nn[nH]n3)cccc21` [Example 163, 4-(2-amino-1-methyl-1H-benzo[d]imidazol-4-yl)-N^1-((S)-pyrrolidin-3-yl)-3-(2H-tetrazol-5-yl)benzene-1,2-disulfonamide], for which the Efflux ratio was 1.00.

Turning to `Nc1ccc(-c2ccc(S(=O)(=O)NC[C@@]3(N)CCNC3)c(S(N)(=O)=O)c2-c2nn[nH]n2)cn1` [Example 369, (R)-4-(6-aminopyridin-3-yl)-N1-((3-aminopyrrolidin-3-yl)methyl)-3-(2H-tetrazol-5-yl)benzene-1,2-disulfonamide], the Efflux ratio was 1.00.

As to `NS(=O)(=O)c1c(S(=O)(=O)N2CCNCC2)ccc(-c2cccc3cn[nH]c23)c1-c1nnn[nH]1` [Example 160, 3-(1H-indazol-7-yl)-6-(piperazin-1-ylsulfonyl)-2-(1H-tetrazol-5-yl)benzenesulfonamide], the Efflux ratio amounted to 4.00.

`CN1CCOC(CNS(=O)(=O)c2ccc(-c3cccc4sc(N)nc34)c(-c3nnn[nH]3)c2S(N)(=O)=O)C1` (stereo not shown) [Example 17, 4-(2-amino-1,3-benzothiazol-4-yl)-N1-[(4-methylmorpholin-2-yl)methyl]-3-(1H-tetrazol-5-yl)benzene-1,2-disulfonamide]: the Efflux ratio is 2.00.

With `Nc1nc2c(-c3ccc(S(=O)(=O)NCC4(CO)CC4)c(S(N)(=O)=O)c3-c3nnn[nH]3)cccc2s1` [Example 37, 4-(2-amino-1,3-benzothiazol-4-yl)-N1-{[1-(hydroxymethyl)cyclopropyl]methyl}-3-(1H-tetrazol-5-yl)benzene-1,2-disulfonamide], the Efflux ratio is 1.00.

As for `Nc1nc2c(-c3ccc(S(=O)(=O)N4CCC(CO)CC4)c(S(N)(=O)=O)c3-c3nnn[nH]3)cccc2s1` [Example 25, 3-(2-amino-1,3-benzothiazol-4-yl)-6-{[4-(hydroxymethyl)piperidin-1-yl]sulfonyl}-2-(1H-tetrazol-5-yl)benzenesulfonamide], the Efflux ratio was determined as 16.00.

With `NC[C@H]1CCN(S(=O)(=O)c2ccc(-c3cccc4sc(N)nc34)c(-c3nnn[nH]3)c2S(N)(=O)=O)C1` [Example 74, 3-(2-amino-1,3-benzothiazol-4-yl)-6-{[(3R)-3-(aminomethyl)pyrrolidin-l-yl]sulfonyl}-2-(1H-tetrazol-5-yl)benzenesulfonamide], the Efflux ratio stood at 1.00.

For `Nc1nc2c(-c3ccc(S(=O)(=O)NCC4CCNC4)c(S(N)(=O)=O)c3-c3nnn[nH]3)cccc2s1.O=CO` (stereo not shown) [Example 120, 3-((4-(2-aminobenzo[d]thiazol-4-yl)-2-sulfamoyl-3-(1H-tetrazol-5-yl)phenylsulfonamido)methyl)pyrrolidin-1-ium formate], the Efflux ratio came out at 0.50.

Turning to `Nc1ncccc1-c1ccc(S(=O)(=O)NC[C@H]2CNCCN2)c(S(N)(=O)=O)c1-c1nn[nH]n1` [Example 316, (R)-4-(2-aminopyridin-3-yl)-N1-(piperazin-2-ylmethyl)-3-(1H-tetrazol-5-yl)benzene-1,2-disulfonamide], the Efflux ratio is listed as 2.00.

On to `Nc1nc2c(-c3ccc(S(=O)(=O)NC4CCC5OC4CC5N)c(S(N)(=O)=O)c3-c3nnn[nH]3)cccc2s1.O=C(O)C(F)(F)F` (stereo not shown) [Example 95, 2-(4-(2-aminobenzo[d]thiazol-4-yl)-2-sulfamoyl-3-(1H-tetrazol-5-yl)phenylsulfonamido)-8-oxabicyclo[3.2.1] octan-6-aminium 2,2,2-trifluoroacetate], for which the Efflux ratio amounted to 1.00.
